pIC50, pKi: −log10 of the molar value.
Assays:
[1] = target: Acetylcholinesterase (Homo sapiens, UniProt P22303)
Description: Inhibition of human AChE using acetylthiocholine iodide as substrate measured for 1 min by Ellman's method

[2] = target: T1, Cholinesterase (Homo sapiens, UniProt P06276); assay: Inhibition of human BuChE using butyrylthiocholine iodide as substrate measured for 1 min by Ellman's method
[3] = species: Homo sapiens; assay: Selectivity index, ratio of IC50 for human BuChE to IC50 for human AChE
[4] = target: T2, Prolyl endopeptidase (Homo sapiens, UniProt P48147); assay: Inhibition of POP (unknown origin) using (Z)-Gly-Pro-p-nitroanilide as substrate preincubated for 5 mins followed by substrate addition and measured after 30 mins by spectrophotometric method
T2 sequence (P48147 whole entry): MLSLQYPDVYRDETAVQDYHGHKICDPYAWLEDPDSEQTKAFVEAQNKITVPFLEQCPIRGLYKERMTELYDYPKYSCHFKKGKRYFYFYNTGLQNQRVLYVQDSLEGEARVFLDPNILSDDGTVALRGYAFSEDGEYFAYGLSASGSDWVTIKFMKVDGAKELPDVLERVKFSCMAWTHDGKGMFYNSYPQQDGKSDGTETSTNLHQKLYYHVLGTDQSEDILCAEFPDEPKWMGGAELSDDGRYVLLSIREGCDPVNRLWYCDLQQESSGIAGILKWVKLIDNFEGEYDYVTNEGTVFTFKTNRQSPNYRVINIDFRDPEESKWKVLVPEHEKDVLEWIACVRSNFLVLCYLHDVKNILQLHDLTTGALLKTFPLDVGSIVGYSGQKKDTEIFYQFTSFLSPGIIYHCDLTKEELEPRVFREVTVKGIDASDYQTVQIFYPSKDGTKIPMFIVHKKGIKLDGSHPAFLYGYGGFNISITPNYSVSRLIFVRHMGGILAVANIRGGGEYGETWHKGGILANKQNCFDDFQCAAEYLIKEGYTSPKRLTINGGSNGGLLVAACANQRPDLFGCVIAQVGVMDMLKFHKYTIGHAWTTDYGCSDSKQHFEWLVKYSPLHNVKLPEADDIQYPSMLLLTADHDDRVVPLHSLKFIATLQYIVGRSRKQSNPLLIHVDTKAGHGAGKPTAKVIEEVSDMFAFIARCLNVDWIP

[5] = target: T1, Cholinesterase; assay: Mixed-type inhibition of human BuChE assessed as enzyme-inhibitor complex using butyrylthiocholine iodide as substrate by Lineweaver-Burk plot analysis
[6] = target: Glycogen synthase kinase-3 beta (Homo sapiens) (UniProt P49841); assay: Inhibition of GSK3B (unknown origin) at 10 uM relative to control
Chain of Glycogen synthase kinase-3 beta (Homo sapiens) (P49841 whole entry, looked up): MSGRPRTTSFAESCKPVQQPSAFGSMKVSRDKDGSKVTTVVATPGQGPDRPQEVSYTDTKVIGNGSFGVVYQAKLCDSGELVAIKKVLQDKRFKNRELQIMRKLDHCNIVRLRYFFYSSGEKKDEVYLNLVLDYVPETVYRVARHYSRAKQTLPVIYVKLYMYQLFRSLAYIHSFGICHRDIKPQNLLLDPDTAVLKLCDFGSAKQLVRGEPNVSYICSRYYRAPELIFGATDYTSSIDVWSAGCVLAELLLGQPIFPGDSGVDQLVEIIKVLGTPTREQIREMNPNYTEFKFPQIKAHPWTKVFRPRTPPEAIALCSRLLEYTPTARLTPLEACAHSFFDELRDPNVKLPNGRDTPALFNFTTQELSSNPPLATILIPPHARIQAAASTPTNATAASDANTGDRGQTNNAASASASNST

[7] = target: T1, Cholinesterase; assay: Mixed-type inhibition of human BuChE assessed as enzyme-substrate-inhibitor complex using butyrylthiocholine iodide as substrate by Lineweaver-Burk plot analysis
[8] = Permeability of the compound after 2.45 hrs by PAMPA; assay type: ADME; settings: read-out: permeability

Chain of Acetylcholinesterase (P22303 whole entry): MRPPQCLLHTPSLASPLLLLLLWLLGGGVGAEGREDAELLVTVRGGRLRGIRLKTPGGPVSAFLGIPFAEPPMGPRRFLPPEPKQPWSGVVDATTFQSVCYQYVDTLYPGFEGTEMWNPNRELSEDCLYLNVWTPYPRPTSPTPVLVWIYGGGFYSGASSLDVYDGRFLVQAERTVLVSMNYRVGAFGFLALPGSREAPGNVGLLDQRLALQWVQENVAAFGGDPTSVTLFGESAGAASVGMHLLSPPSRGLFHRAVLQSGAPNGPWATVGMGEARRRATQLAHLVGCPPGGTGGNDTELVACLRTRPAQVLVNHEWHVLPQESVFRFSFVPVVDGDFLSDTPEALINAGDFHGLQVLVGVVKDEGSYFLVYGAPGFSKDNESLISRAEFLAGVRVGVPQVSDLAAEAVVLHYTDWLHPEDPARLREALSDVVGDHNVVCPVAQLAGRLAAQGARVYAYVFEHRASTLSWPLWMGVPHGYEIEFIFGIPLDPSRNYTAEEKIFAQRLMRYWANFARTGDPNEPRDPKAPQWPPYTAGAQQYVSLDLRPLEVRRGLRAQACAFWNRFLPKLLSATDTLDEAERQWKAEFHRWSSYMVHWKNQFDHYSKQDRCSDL
T1 sequence (P06276 whole entry): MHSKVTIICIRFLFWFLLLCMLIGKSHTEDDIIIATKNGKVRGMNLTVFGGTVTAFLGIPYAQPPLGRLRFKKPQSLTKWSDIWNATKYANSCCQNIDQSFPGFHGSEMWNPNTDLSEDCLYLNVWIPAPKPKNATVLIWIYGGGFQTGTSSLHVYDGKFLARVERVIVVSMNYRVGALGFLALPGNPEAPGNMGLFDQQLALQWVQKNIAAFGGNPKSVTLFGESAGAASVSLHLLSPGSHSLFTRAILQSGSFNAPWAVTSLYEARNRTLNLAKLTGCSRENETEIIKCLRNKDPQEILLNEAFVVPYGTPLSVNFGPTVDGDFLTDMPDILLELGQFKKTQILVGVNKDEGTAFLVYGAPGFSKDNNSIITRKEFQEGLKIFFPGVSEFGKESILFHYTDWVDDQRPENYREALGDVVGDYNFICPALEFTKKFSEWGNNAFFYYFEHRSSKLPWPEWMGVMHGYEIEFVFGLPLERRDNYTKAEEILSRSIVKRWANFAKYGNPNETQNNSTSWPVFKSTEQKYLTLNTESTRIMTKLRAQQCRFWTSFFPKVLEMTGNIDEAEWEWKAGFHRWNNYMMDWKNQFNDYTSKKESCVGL

Row | SMILES | pIC50 [1] | pIC50 [2] | Ratio IC50 [3] | pIC50 [4] | pKi [5] | inhibition [6] | pKi [7] | Papp at 2.45 h [8]
1 | COc1cc2c(cc1O)C(Cc1ccc(O)c(Oc3cc(CC4c5cc(O)c(OC)cc5CCN4C)ccc3OC)c1)N(C)CC2 (stereo not given) | 4.18 | 5.16 | 0.1 |  |  |  |  | 
2 | COc1cc2c(cc1Oc1c3c(cc(OC)c1OC)CCN(C)C3)C(Cc1ccc(O)cc1)N(C)CC2 (stereo not given) | < 4.00 | 4.17 | 0.2 | < 3.70 |  |  |  | 
3 | CCN(CC)Cc1cc2cc(c1O)Oc1ccc(cc1)C[C@H]1c3cc(c(OC)cc3CCN1C)Oc1c(OC)c(OC)cc3c1[C@@H](C2)N(C)CC3 | 4.17 | < 4.00 |  |  |  |  |  | 
4 | COc1cc2c3cc1Oc1c(O)c(OC)cc4c1[C@H](Cc1ccc(cc1)Oc1cc(ccc1O)C[C@H]3N(C)CC2)N(C)CC4 | < 4.00 | 6.10 | 0.008 | 3.72 | 5.19 | 10% | 4.40 | 1.8 ×10⁻⁶ cm/s
5 | COc1cc2c3cc1Oc1c(OC)c(OC)cc4c1[C@@H](Cc1ccc(O)c(c1)Oc1ccc(cc1)C[C@@H]3N(C)CC2)N(C)CC4 [BERBAMINE] | < 4.00 | < 4.00 | 0.4 | < 3.70 |  |  |  | 
6 | COc1ccc2cc3[n+](cc2c1OC)CCc1cc2c(cc1-3)OCO2 [BERBERINE] |  |  |  |  |  |  |  | 0.1 ×10⁻⁶ cm/s
7 | COc1ccc2c3c1O[C@H]1C[C@@H](O)C=C[C@@]31CCN(C)C2 [GALANTAMINE] |  |  |  | < 3.70 |  |  |  | 
8 | C/C=C1\[C@H]2C=C(C)C[C@]1(N)c1ccc(=O)[nH]c1C2 [HUPERZINE A] |  | < 4.00 |  |  |  |  |  | 
9 | COc1cc2c3cc1Oc1c(O)c(OC)cc4c1[C@@H](Cc1ccc(O)c(c1)Oc1ccc(cc1)C[C@@H]3N(C)CC2)N(C)CC4 [OBAMEGINE] | 4.01 | < 4.00 | 1.5 | < 3.70 |  |  |  | 
10 | COc1ccc2cc3n(c(=O)c2c1OC)CCc1cc2c(cc1-3)OCO2 [OXYBERBERINE] | < 4.00 | 4.17 | 1.1 | < 3.70 |  |  |  | 
11 | COc1cc2c(cc1OC)-c1cc3ccc(OC)c(OC)c3c[n+]1CC2 [PALMITINE] |  | < 4.00 | 86 | < 3.70 |  |  |  | 
